Experimental data taken from patent US4902710A, “Serotonin and norepinephrine uptake inhibitors” (Eli Lilly and Company, priority 1988, dated 1990).
pIC50: −log10 of the molar value. Structures can show the parent of a compound that is named as a salt.

What was measured:
[1] = system: serotonin (5-hydroxytryptamine) uptake; conditions: hydrochloride salt; cited from earlier work
[2] = system: norepinephrine uptake; conditions: hydrochloride; cited from earlier work
[3] = system: serotonin (5HT) uptake, cortical synaptosomes; assay: Synaptosomal uptake of 3H-serotonin (3H-5HT) in rat cerebral cortex synaptosomes; format: biochemical, Male Sprague-Dawley rats; conditions: for pIC50: inhibition of 5HT uptake in vitro, concentration needed to inhibit 50%; for percent inhibition 5HT (numbers in parentheses): at 1000 nM, compounds which failed to achieve 50% inhibition by that concentration
Description: (§1) This general procedure is set forth by Wong et al., in Drug Development Research 6:397-403 (1985).
(§2) Male Sprague-Dawley rats (110-150 g) from Harlan Industries (Cumberland, Id.) were fed a Purina Chow ad libitum for at least 3 days before being used in the studies. Rats were killed by decapitation. Whole brains were removed and dissected. Cerebral cortex was homogenized in 9 volumes of a medium containing 0.32M sucrose and 10 mM glucose. Crude synaptosomal preparations were isolated after differential centrifugation at 1,000 g for 10 min. and 17,000 g for 28 min. The final pellets were suspended in the same medium and kept in ice until use within the same day.
(§3) Synaptosomal uptake of ^3 H-serotonin(^3 H-5-hydroxytryptamine, ^3 H-5HT) and ^14 C-l-norepinephrine (^14 C-NE) was determined as follows. Cortical synaptosomes (equivalent to 1 mg of protein) were incubated at 37° C. for 5 min in 1 ml of Krebs-bicarbonate medium containing also 10 mM glucose, 0.1 mM iproniazid, 1 mM ascorbic acid, 0.17 mM EDTA, […] and 100 nM^14 C-NE. The reaction mixture was immediately diluted with 2 ml of ice-chilled Krebs-bicarbonate buffer and filtered under vacuum with a cell harvester (Brandel, Gaithersburg, Md.). Filters were rinsed twice with approximately 5 ml of ice-chilled 0.9% saline and were transferred to a counting vial containing 10 ml of scintillation fluid (PCS, Amersham, Arlington Heights, Ill.). Radioactivity was measured by a liquid scintillation spectrophotometer. Accumulation of ^3 H-5HT and ^14 C-NE at 4° C. represented the background and was subtracted from all samples.

[4] = system: norepinephrine (NE) uptake, cortical synaptosomes; assay: Synaptosomal uptake of 14C-l-norepinephrine (14C-NE) in rat cerebral cortex synaptosomes; format: biochemical, Male Sprague-Dawley rats; conditions: for pIC50: inhibition of norepinephrine uptake in vitro, concentration needed to inhibit 50%; for percent inhibition NE (numbers in parentheses): at 1000 nM, compounds which failed to achieve 50% inhibition by that concentration
Description: as §1, §2, §3

| SMILES | pIC50 [3] | pIC50 [4] | percent inhibition NE (numbers in parentheses) [4] [%] | also measured |
| --- | --- | --- | --- | --- |
| CNCCC(Oc1ccc(C(F)(F)F)cc1)c1ccccc1 (racemic) [fluoxetine, dl-N-methyl-γ-[4-(trifluoromethyl)phenoxy]benzenepropanamine] | – | – | – | selective serotonin uptake inhibition (in words) [1]: selective serotonin (5-hydroxytryptamine) uptake inhibitor |
| CNCCC(Oc1ccccc1C)c1ccccc1.Cl (single isomer, unassigned; (-)) [tomoxetine hydrochloride, (-)-N-methyl-γ-(2-methylphenoxy)benzenepropanamine hydrochloride] | – | – | – | selective norepinephrine uptake inhibition (in words) [2]: selective inhibitor of norepinephrine uptake |
| CNCCC(Sc1ccccc1OC)c1ccccc1 (stereo not shown) [Example 1, N-Methyl-3-[(2-methoxyphenyl)thio]benzenepropanamine hydrochloride] | 6.57 | 7.38 | – | – |
| CNCCC(Sc1ccccc1C)c1ccccc1 (stereo not shown) [Example 2, hydrochloride] | 6.78 | 7.10 | – | – |
| CNCCC(Sc1ccc(C(F)(F)F)cc1)c1ccccc1 (stereo not shown) [Example 3, N-Methyl-3-[[4-(trifluoromethyl)phenyl]thio]benzenepropanamine hydrochloride] | 6.96 | – | 11 | – |
| CNCCC(c1ccccc1)[S+]([O-])c1ccc(C(F)(F)F)cc1 (stereo not shown) [Example 4, hydrochloride] | – | – | 6 | percent inhibition 5HT (numbers in parentheses) [3]: 23% |
| CNCCC(c1ccccc1)S(=O)(=O)c1ccc(C(F)(F)F)cc1 (stereo not shown) [Example 5, N-Methyl-3-[[4-(trifluoromethyl)phenyl]sulfonyl]benzenepropanamine hydrochloride] | – | – | 1 | percent inhibition 5HT (numbers in parentheses) [3]: 5% |
| CNCCC(Sc1cccs1)c1ccccc1 (stereo not shown) [Example 6, N-Methyl-3-(2-thienylthio)benzenepropanamine hydrochloride] | 6.00 | 7.32 | – | – |
| CNCCC(Sc1ccc(C)s1)c1ccccc1 (stereo not shown) [Example 7, N-Methyl-3-[(5-methyl-2-thienyl)thio]benzenepropanamine hydrochloride] | 6.00 | 6.52 | – | – |
